From ChEMBL document CHEMBL2203210, “SAR and in vivo evaluation of 4-aryl-2-aminoalkylpyrimidines as potent and selective Janus kinase 2 (JAK2) inhibitors” (Bioorg Med Chem Lett, 2012)

Tests used:
[1] = biological target: Non-receptor tyrosine-protein kinase TYK2 (Homo sapiens, UniProt P29597); test: Inhibition of TYK2
[2] = Cmax in Beagle dog at 3 mg/kg, iv; type: ADME, organism-based, Canis lupus familiaris; parameters: dose 3 mg/kg, route intravenous; conditions: in vivo
[3] = Oral bioavailability in athymic nude mouse at 10 mg/kg; type: ADME, organism-based; conditions: in vivo
HEL [4] = test: Induction of apoptosis in HEL 92.1.7 cells xenografted in nude mouse at 300 mg/kg, po bid relative to vehicle-treated control; type: functional, Homo sapiens
HEL [5] = test: Anitumour activity against HEL 92.1.7 cells xenografted in nude mouse assessed as tumor growth inhibition at 200 mg/kg, po bid administered up to 14 days relative to vehicle-treated control; type: functional, Homo sapiens; conditions: 336 h, read-out: TGI
Mus musculus [6] = test: Inhibition of JAK2 in HEL 92.1.7 cells xenografted in nude mouse assessed as inhibition of STAT3 phosphorylation at 100 mg/kg, po after 4 hrs relative to vehicle-treated control; type: functional
Mus musculus [7] = test: Inhibition of JAK2 in HEL 92.1.7 cells xenografted in nude mouse assessed as inhibition of STAT1 phosphorylation at 30 mg/kg, po after 4 hrs relative to vehicle-treated control; type: functional
[8] = Drug uptake in nude mouse xenografted with HEL 92.1.7 cells at 300 mg/kg, po after 4 hrs; type: ADME, organism-based; parameters: dose 300 mg/kg, route oral; conditions: in vivo, read-out: Drug uptake
[9] = Drug uptake in nude mouse xenografted with HEL 92.1.7 cells at 100 mg/kg, po after 4 hrs; type: ADME, organism-based; parameters: dose 100 mg/kg, route oral; conditions: in vivo, read-out: Drug uptake
[10] = Plasma concentration in nude mouse xenografted with HEL 92.1.7 cells at 300 mg/kg, po after 4 hrs; type: ADME, organism-based; parameters: dose 300 mg/kg, route oral
[11] = biological target: T1, Tyrosine-protein kinase JAK3 (Homo sapiens, UniProt P52333)
T1 sequence (P52333 whole entry): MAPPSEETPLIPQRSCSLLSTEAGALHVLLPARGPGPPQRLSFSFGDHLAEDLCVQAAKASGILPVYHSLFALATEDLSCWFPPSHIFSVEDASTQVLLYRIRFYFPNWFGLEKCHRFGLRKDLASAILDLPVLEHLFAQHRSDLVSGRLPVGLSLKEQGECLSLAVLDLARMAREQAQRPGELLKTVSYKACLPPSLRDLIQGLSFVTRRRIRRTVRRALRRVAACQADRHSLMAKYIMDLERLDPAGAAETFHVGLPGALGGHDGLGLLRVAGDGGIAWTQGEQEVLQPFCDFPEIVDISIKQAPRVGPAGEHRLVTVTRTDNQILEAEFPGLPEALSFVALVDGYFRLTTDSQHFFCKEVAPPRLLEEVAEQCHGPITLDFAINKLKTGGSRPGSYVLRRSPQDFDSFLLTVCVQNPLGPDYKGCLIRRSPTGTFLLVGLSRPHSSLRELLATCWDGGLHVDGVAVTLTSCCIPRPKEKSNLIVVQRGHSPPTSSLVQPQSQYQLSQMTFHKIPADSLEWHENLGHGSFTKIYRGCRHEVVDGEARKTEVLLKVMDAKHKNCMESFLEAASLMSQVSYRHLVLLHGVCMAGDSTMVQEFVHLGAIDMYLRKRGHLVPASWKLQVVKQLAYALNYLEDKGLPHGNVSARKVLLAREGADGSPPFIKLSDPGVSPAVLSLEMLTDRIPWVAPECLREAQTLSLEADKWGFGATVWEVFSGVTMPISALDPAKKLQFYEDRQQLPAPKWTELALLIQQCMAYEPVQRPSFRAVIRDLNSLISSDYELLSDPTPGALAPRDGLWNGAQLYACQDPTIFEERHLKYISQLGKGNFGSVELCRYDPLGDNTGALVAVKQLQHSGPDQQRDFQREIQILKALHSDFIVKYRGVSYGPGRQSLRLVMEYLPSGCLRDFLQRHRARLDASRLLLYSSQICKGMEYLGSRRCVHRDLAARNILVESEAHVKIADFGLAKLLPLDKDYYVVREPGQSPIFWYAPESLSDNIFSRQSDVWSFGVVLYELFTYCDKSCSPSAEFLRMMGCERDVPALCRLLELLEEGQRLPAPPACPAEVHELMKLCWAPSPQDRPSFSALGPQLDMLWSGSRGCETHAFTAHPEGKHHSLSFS

Non-receptor tyrosine-protein kinase TYK2, sequence (P29597 whole entry): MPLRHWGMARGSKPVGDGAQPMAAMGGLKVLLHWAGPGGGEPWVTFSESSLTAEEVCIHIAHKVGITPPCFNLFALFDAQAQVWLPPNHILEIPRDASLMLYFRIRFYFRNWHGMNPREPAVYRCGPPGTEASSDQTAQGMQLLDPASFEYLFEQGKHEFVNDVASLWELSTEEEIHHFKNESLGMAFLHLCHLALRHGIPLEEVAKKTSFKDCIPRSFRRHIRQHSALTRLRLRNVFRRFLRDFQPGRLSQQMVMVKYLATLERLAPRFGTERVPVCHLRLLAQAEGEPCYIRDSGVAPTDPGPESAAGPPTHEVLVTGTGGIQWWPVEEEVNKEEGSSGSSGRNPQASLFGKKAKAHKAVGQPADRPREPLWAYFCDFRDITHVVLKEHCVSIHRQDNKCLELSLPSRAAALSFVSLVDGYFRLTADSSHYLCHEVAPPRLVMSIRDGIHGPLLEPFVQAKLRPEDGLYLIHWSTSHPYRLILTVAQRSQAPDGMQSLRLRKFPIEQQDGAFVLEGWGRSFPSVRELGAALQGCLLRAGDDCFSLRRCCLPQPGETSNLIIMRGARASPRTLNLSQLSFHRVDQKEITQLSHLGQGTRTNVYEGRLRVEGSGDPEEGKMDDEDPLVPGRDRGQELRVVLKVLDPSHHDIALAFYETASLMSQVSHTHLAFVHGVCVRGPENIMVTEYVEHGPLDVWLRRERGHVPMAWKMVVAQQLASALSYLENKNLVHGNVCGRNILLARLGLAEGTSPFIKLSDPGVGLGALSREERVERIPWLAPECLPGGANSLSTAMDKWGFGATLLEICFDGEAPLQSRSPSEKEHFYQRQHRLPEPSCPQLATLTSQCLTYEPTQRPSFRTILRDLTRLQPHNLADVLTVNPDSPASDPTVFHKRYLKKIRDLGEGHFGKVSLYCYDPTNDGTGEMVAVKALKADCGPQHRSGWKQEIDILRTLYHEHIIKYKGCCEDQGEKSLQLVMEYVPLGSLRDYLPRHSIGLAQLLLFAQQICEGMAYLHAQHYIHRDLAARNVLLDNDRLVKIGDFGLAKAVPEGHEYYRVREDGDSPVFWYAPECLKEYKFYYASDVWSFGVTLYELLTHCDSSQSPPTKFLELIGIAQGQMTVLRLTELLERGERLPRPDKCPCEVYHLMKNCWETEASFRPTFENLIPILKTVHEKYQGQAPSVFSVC

- IC50 [1]: 348 nM
- Cmax [2]: 0.44 µM
- bioavailability [3]: 54.5%
- concentration at 4 h [8]: 62.4 µM
- concentration at 4 h [9]: 240 µM
- concentration at 4 h [10]: 20.2 µM
- IC50 [11]: 214 nM
SMILES: O=C(Nc1ccc(-c2ccnc(Nc3ccc(N4CCOCC4)cc3)n2)cc1)[C@H]1CCCN1
- fold change (FC) (HEL [4]): 11.3
- inhibition in vivo at 200 mg/kg (HEL [5]): 60%
- inhibition in vivo at 100 mg/kg (Mus musculus [6]): 40%
- inhibition in vivo at 30 mg/kg (Mus musculus [7]): 41%
